Laboratory results published in patent publication US8048825B2, “Haloalkylsulfonanilide derivatives or salt thereof, herbicide comprising the derivatives as active ingredient, and use of the herbicide” (Nihon Nohyaku Co., Ltd., priority 2006, dated 2011).

Legend:
Type in all cases: in vivo
Lindernia procumbens [1] = test: Herbicidal efficacy on paddy field weeds of pre-emergence stage (Pre), Test Example 1; conditions: 1000 g/ha as active ingredient, examined after 21 days
Outline: (§1)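 Clay-loam pots sown with Scirpus juncoides, covered with soil containing Lindernia procumbens seed, flooded to 5 cm. Next day formulated compound applied dropwise to water at 1000 g/ha a.i. Greenhouse-grown; growth inhibition versus untreated scored 0–5 after 21 days.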

Scirpus juncoides [2] = test: as above; conditions: 1000 g/ha as active ingredient, examined after 21 days
Outline: as §1

Echinochloa crus-galli = test: Herbicidal effect on paddy field weeds of post-emergence stage (Post), Test Example 2; conditions: one-leaf stage, 1000 g/ha as active ingredient, examined after 21 days
Outline: (§2)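 Scirpus juncoides and Echinochloa crus-galli sown in clay loam, with Lindernia procumbens seed in the soil cover, under 5 cm flooding in greenhouse. At one-leaf stage, 1000 g/ha active ingredient applied to pot water. Efficacy scored visually 0–5 against untreated plants at 21 days after treatment.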

Lindernia procumbens [3] = test: as above; conditions: one-leaf stage, 1000 g/ha as active ingredient, examined after 21 days
Outline: as §2

Scirpus juncoides [4] = test: as above; conditions: one-leaf stage, 1000 g/ha as active ingredient, examined after 21 days
Outline: as §2

SMILES | Lindernia procumbens pre (herbicidal effect) (Lindernia procumbens [1]) | Scirpus juncoides pre (herbicidal effect) (Scirpus juncoides [2]) | Echinochloa crus-galli post (herbicidal effect) (Echinochloa crus-galli) | Lindernia procumbens post (herbicidal effect) (Lindernia procumbens [3]) | Scirpus juncoides post (herbicidal effect) (Scirpus juncoides [4])
CCC1(CC)CCN(Cc2ccccc2NS(=O)(=O)C(F)(F)F)C(=O)O1 [Compound 1-102] | 4 (90%-99% herbicidal effect, phytotoxicity) | 4 (90%-99% herbicidal effect, phytotoxicity) | 4 (90%-99% herbicidal effect, phytotoxicity) | 4 (90%-99% herbicidal effect, phytotoxicity) | 4 (90%-99% herbicidal effect, phytotoxicity)
CCOC(=O)N(c1ccccc1CN1CCC(CC)(CC)OC1=O)S(=O)(=O)C(F)(F)F [Compound 1-104] | 4 (90%-99% herbicidal effect, phytotoxicity) | 4 (90%-99% herbicidal effect, phytotoxicity) | 4 (90%-99% herbicidal effect, phytotoxicity) | 4 (90%-99% herbicidal effect, phytotoxicity) | 4 (90%-99% herbicidal effect, phytotoxicity)
CCC1(CC)CCN(Cc2ccccc2N(C(=O)OCC(C)C)S(=O)(=O)C(F)(F)F)C(=O)O1 [Compound 1-107] | 4 (90%-99% herbicidal effect, phytotoxicity) | 4 (90%-99% herbicidal effect, phytotoxicity) | 4 (90%-99% herbicidal effect, phytotoxicity) | 4 (90%-99% herbicidal effect, phytotoxicity) | 4 (90%-99% herbicidal effect, phytotoxicity)
CCCCC(CC)COC(=O)N(c1ccccc1CN1CCC(CC)(CC)OC1=O)S(=O)(=O)C(F)(F)F (stereo not shown) [Compound 1-109] | 4 (90%-99% herbicidal effect, phytotoxicity) | 4 (90%-99% herbicidal effect, phytotoxicity) | 4 (90%-99% herbicidal effect, phytotoxicity) | 4 (90%-99% herbicidal effect, phytotoxicity) | 4 (90%-99% herbicidal effect, phytotoxicity)
CCC1(CC)CCN(Cc2ccccc2N(C(=O)OCC(C)(C)C)S(=O)(=O)C(F)(F)F)C(=S)O1 [Compound 1-120] | 4 (90%-99% herbicidal effect, phytotoxicity) | 4 (90%-99% herbicidal effect, phytotoxicity) | 4 (90%-99% herbicidal effect, phytotoxicity) | 4 (90%-99% herbicidal effect, phytotoxicity) | 4 (90%-99% herbicidal effect, phytotoxicity)
CC1(C2CC2)CCN(Cc2ccccc2NS(=O)(=O)C(F)(F)F)C(=O)O1 (stereo not shown) [Compound 1-125] | 4 (90%-99% herbicidal effect, phytotoxicity) | 4 (90%-99% herbicidal effect, phytotoxicity) | 4 (90%-99% herbicidal effect, phytotoxicity) | 4 (90%-99% herbicidal effect, phytotoxicity) | 4 (90%-99% herbicidal effect, phytotoxicity)
CC(C)COC(=O)N(c1ccccc1CN1CCC(C)(C2CC2)OC1=O)S(=O)(=O)C(F)(F)F (stereo not shown) [Compound 1-130] | 4 (90%-99% herbicidal effect, phytotoxicity) | 4 (90%-99% herbicidal effect, phytotoxicity) | 4 (90%-99% herbicidal effect, phytotoxicity) | 4 (90%-99% herbicidal effect, phytotoxicity) | 4 (90%-99% herbicidal effect, phytotoxicity)
CC(C)(C)COC(=O)N(c1ccccc1CN1CCC(C)(C2CC2)OC1=O)S(=O)(=O)C(F)(F)F (stereo not shown) [Compound 1-131] | 4 (90%-99% herbicidal effect, phytotoxicity) | 4 (90%-99% herbicidal effect, phytotoxicity) | 4 (90%-99% herbicidal effect, phytotoxicity) | 4 (90%-99% herbicidal effect, phytotoxicity) | 4 (90%-99% herbicidal effect, phytotoxicity)
CC(C)(C)C(=O)OCN(c1ccccc1CN1CCC(C)(C2CC2)OC1=O)S(=O)(=O)C(F)(F)F (stereo not shown) [Compound 1-136] | 4 (90%-99% herbicidal effect, phytotoxicity) | 4 (90%-99% herbicidal effect, phytotoxicity) | 4 (90%-99% herbicidal effect, phytotoxicity) | 4 (90%-99% herbicidal effect, phytotoxicity) | 4 (90%-99% herbicidal effect, phytotoxicity)
O=C1OC2(CCCC2)CCN1Cc1ccccc1NS(=O)(=O)C(F)(F)F [Compound 1-137] | 4 (90%-99% herbicidal effect, phytotoxicity) | 4 (90%-99% herbicidal effect, phytotoxicity) | 4 (90%-99% herbicidal effect, phytotoxicity) | 4 (90%-99% herbicidal effect, phytotoxicity) | 4 (90%-99% herbicidal effect, phytotoxicity)
CC(C)COC(=O)N(c1ccccc1CN1CCC2(CCCC2)OC1=O)S(=O)(=O)C(F)(F)F [Compound 1-142] | 4 (90%-99% herbicidal effect, phytotoxicity) | 4 (90%-99% herbicidal effect, phytotoxicity) | 4 (90%-99% herbicidal effect, phytotoxicity) | 4 (90%-99% herbicidal effect, phytotoxicity) | 4 (90%-99% herbicidal effect, phytotoxicity)
CC(C)(C)COC(=O)N(c1ccccc1CN1CCC2(CCCC2)OC1=O)S(=O)(=O)C(F)(F)F [Compound 1-143] | 4 (90%-99% herbicidal effect, phytotoxicity) | 4 (90%-99% herbicidal effect, phytotoxicity) | 4 (90%-99% herbicidal effect, phytotoxicity) | 4 (90%-99% herbicidal effect, phytotoxicity) | 4 (90%-99% herbicidal effect, phytotoxicity)
CCOC(=O)N(c1ccccc1CN1CCC(c2ccccc2)(C2CC2)OC1=O)S(=O)(=O)C(F)(F)F (stereo not shown) [Compound 1-185] | 4 (90%-99% herbicidal effect, phytotoxicity) | 4 (90%-99% herbicidal effect, phytotoxicity) | 4 (90%-99% herbicidal effect, phytotoxicity) | 4 (90%-99% herbicidal effect, phytotoxicity) | 4 (90%-99% herbicidal effect, phytotoxicity)
CCOC(=O)N(c1ccccc1CN1CCC(c2ccccc2)(C2CCC2)OC1=O)S(=O)(=O)C(F)(F)F (stereo not shown) [Compound 1-208] | 4 (90%-99% herbicidal effect, phytotoxicity) | 4 (90%-99% herbicidal effect, phytotoxicity) | 4 (90%-99% herbicidal effect, phytotoxicity) | 4 (90%-99% herbicidal effect, phytotoxicity) | 4 (90%-99% herbicidal effect, phytotoxicity)
